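Grown in 96-well plates, cells were treated for 48 hours with each compound at five concentrations. Insufficient inhibition: endpoint recorded as highest concentration tested. Abbreviation: GI50, concentration required for 50% inhibition of growth.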 The source made the active and inactive calls. Rule as the data show it: active = GI50 up to about 1.1 µM and inactive = higher.
What was measured:
Test in all cases: NCI tumour cell line growth inhibition, 48 h
[1] = system: BT-549
[2] = system: CCRF-CEM
[3] = system: DU-145
[4] = system: HCT-15
[5] = system: HL-60
[6] = system: KM-20L2
[7] = system: Malme-3M
[8] = system: NCI-H23
[9] = system: NCI-H460
[10] = system: NCI-H522
[11] = system: OVCAR-3
[12] = system: OVCAR-4
[13] = system: PC-3
[14] = system: RPMI-8226
[15] = system: RXF 393
[16] = system: SK-MEL-28
[17] = system: SK-OV-3
[18] = system: SNB-75
[19] = system: SW-620
[20] = system: UACC-257

Structure (SMILES) | GI50 [1] | GI50 [2] | GI50 [3] | GI50 [4] [µM] | GI50 [5] | GI50 [6] | GI50 [7] | GI50 [8] | GI50 [9] | GI50 [10] | GI50 [11] | GI50 [12] | GI50 [13] | GI50 [14] | GI50 [15] | GI50 [16] | GI50 [17] | GI50 [18] | GI50 [19] | GI50 [20]
COC1C(C)OC(OC2CC(C)(O)Cc3cc4c(c(O)c32)C(=O)c2c(O)cc3c(c2C4=O)OC2OC3(C)C(O)C(N(C)C)C2O)C(OC)C1(C)OC (stereo not given) | 0.000257 µM (active) | 0.00475 µM (active) | 0.000809 µM (active) | 0.00849 | 0.00541 µM (active) | 0.0299 µM (active) | 0.0561 µM (active) | 0.00496 µM (active) | 0.00345 µM (active) | 0.00447 µM (active) | 0.00516 µM (active) | 0.19 µM (active) | 0.000204 µM (active) | 0.015 µM (active) | 0.00463 µM (active) | 0.00557 µM (active) | 0.136 µM (active) | 0.0165 µM (active) | 0.00457 µM (active) | 0.00553 µM (active)
O=NN(CCCl)C(=O)NC1CCC(=O)NC1=O (stereo not given) | 251 µM (inactive) | 75.5 µM (inactive) | 337 µM (inactive) | 300 | 66.7 µM (inactive) | 800 µM (inactive) | 221 µM (inactive) | 277 µM (inactive) | 83.8 µM (inactive) | 225 µM (inactive) | 818 µM (inactive) | 893 µM (inactive) | 745 µM (inactive) | 220 µM (inactive) | 232 µM (inactive) | 409 µM (inactive) | 526 µM (inactive) | 60.5 µM (inactive) | 67.8 µM (inactive) | 335 µM (inactive)
